Targets include Carbonic anhydrase 2 (Homo sapiens, UniProt P00918); Carbonic anhydrase 7 (Homo sapiens, UniProt P43166); Carbonic anhydrase 12 (Homo sapiens, UniProt O43570); Carbonic anhydrase 14 (Homo sapiens, UniProt Q9ULX7); Carbonic anhydrase 1 (Homo sapiens, UniProt P00915); Carbonic anhydrase 9 (Homo sapiens, UniProt Q16790).

The structures appear in SMILES notation.

Carbonic anhydrase 14, sequence (Q9ULX7 whole entry): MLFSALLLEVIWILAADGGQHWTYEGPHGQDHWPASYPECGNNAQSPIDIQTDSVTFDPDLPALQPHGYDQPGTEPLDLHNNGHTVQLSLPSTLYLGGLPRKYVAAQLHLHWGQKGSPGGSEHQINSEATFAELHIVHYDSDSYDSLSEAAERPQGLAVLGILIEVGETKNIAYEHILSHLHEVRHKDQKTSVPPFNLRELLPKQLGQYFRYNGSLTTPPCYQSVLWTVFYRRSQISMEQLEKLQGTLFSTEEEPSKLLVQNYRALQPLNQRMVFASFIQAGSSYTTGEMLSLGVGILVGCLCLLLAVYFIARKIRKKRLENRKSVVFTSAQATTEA
Carbonic anhydrase 1, sequence (P00915 whole entry): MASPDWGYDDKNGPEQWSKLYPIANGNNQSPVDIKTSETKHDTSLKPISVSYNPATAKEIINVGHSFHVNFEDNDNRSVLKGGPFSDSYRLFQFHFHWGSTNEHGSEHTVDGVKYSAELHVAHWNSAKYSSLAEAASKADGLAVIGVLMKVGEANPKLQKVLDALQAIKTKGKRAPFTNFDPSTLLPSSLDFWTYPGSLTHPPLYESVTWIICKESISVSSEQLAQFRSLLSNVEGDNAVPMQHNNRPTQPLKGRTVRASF
Carbonic anhydrase 7, sequence (P43166 whole entry): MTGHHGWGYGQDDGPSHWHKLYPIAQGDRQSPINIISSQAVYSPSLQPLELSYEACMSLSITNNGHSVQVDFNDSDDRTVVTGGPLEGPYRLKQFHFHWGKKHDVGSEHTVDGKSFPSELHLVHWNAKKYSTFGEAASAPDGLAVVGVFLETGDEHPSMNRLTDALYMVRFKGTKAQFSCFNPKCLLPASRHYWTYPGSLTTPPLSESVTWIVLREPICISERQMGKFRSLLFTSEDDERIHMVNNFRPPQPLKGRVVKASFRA
Carbonic anhydrase 12, sequence (O43570 whole entry): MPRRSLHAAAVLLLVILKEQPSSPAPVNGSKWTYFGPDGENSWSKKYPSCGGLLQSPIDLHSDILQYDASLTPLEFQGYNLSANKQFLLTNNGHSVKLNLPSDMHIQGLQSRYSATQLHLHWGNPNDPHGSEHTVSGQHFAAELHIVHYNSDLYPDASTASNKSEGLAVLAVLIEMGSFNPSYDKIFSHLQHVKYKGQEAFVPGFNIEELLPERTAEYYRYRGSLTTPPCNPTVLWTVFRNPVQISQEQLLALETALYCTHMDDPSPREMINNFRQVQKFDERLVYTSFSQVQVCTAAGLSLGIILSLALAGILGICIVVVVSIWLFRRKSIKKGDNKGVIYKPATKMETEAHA
Description for Carbonic anhydrase 12: Inhibition of recombinant human carbonic anhydrase 12 preincubated for 15 mins by stopped-flow CO2 hydration assay
Description for Carbonic anhydrase 14: Inhibition of recombinant human carbonic anhydrase 14 preincubated for 15 mins by stopped-flow CO2 hydration assay
Description for Carbonic anhydrase 2: Inhibition of recombinant human carbonic anhydrase 2 preincubated for 15 mins by stopped-flow CO2 hydration assay
Description for Carbonic anhydrase 7: Inhibition of recombinant human carbonic anhydrase 7 preincubated for 15 mins by stopped-flow CO2 hydration assay
Description for Carbonic anhydrase 9: Inhibition of recombinant human carbonic anhydrase 9 preincubated for 15 mins by stopped-flow CO2 hydration assay

As for `COC(=O)[C@H](Cc1ccccc1)NS(=O)(=O)NCC(C)C`, the Ki (in general, the equilibrium dissociation constant of an inhibitor or competing ligand from its target) on Carbonic anhydrase 2 was 8530 nM; at Carbonic anhydrase 7, 0.37 nM; at Carbonic anhydrase 12 it was 6.8 nM; on Carbonic anhydrase 14 it was 7.7 nM; at Carbonic anhydrase 1, more than 10000 nM; on Carbonic anhydrase 9, 225 nM.

As to `COC(=O)[C@@H](NS(=O)(=O)NCc1ccc(F)cc1)C(C)C`, the inhibition constant (Ki) on Carbonic anhydrase 2 was more than 10000 nM; at Carbonic anhydrase 7, 0.24 nM; on Carbonic anhydrase 12 it was 0.74 nM; on Carbonic anhydrase 14, 7.4 nM; at Carbonic anhydrase 1, more than 10000 nM; at Carbonic anhydrase 9 it was 25.7 nM.

In the case of `COC(=O)CCNS(=O)(=O)NCc1ccc(F)cc1`, the Ki is 8880 nM on Carbonic anhydrase 2; 0.45 nM at Carbonic anhydrase 7; 74.4 nM on Carbonic anhydrase 12; 22.7 nM on Carbonic anhydrase 14; more than 10000 nM on Carbonic anhydrase 1; 29.3 nM at Carbonic anhydrase 9.

Regarding `COC(=O)[C@H](Cc1ccccc1)NS(=O)(=O)NCc1ccc(F)cc1`, the Ki at Carbonic anhydrase 2 is more than 10000 nM; at Carbonic anhydrase 7, 0.28 nM; at Carbonic anhydrase 12, 0.66 nM; on Carbonic anhydrase 14, 6.5 nM; at Carbonic anhydrase 1, more than 10000 nM; at Carbonic anhydrase 9, 28.1 nM.

With `COC(=O)CCNS(=O)(=O)NCCc1ccccc1`, the inhibition constant (Ki) at Carbonic anhydrase 2 was more than 10000 nM; at Carbonic anhydrase 7 it was 2.2 nM; on Carbonic anhydrase 12 it was 64.2 nM; at Carbonic anhydrase 14 it was 7.3 nM; on Carbonic anhydrase 1, more than 10000 nM; at Carbonic anhydrase 9, 26.5 nM.

Regarding `COC(=O)CCNS(=O)(=O)NCC(C)C`, the inhibition constant (Ki) at Carbonic anhydrase 2 is more than 10000 nM; at Carbonic anhydrase 7, 0.27 nM; on Carbonic anhydrase 12, 4.7 nM; on Carbonic anhydrase 14 it was 6.3 nM; at Carbonic anhydrase 1 it was more than 10000 nM; at Carbonic anhydrase 9 it was 31.8 nM.

Take `COC(=O)CCNS(=O)(=O)NC(C)c1ccccc1` (stereo unspecified): the Ki is more than 10000 nM on Carbonic anhydrase 2; 0.31 nM at Carbonic anhydrase 7; 5.2 nM on Carbonic anhydrase 12; 7.5 nM at Carbonic anhydrase 14; more than 10000 nM on Carbonic anhydrase 1; 117 nM at Carbonic anhydrase 9.

Turning to `CCCCCCNS(=O)(=O)NCCC(=O)OC`, the inhibition constant (Ki) is 7680 nM on Carbonic anhydrase 2; 0.3 nM on Carbonic anhydrase 7; 5 nM on Carbonic anhydrase 12; 6.1 nM on Carbonic anhydrase 14; more than 10000 nM at Carbonic anhydrase 1; 96.7 nM on Carbonic anhydrase 9.

`COC(=O)[C@@H](NS(=O)(=O)NCC(C)C)C(C)C`: the Ki at Carbonic anhydrase 2 is more than 10000 nM; on Carbonic anhydrase 7, 0.39 nM; at Carbonic anhydrase 12 it was 33.7 nM; at Carbonic anhydrase 14, 7.8 nM; on Carbonic anhydrase 1, more than 10000 nM; at Carbonic anhydrase 9 it was 191 nM.

In the case of `COC(=O)CCNS(=O)(=O)NC12CC3CC(CC(C3)C1)C2`, the Ki at Carbonic anhydrase 2 is 4960 nM; on Carbonic anhydrase 7 it was 0.43 nM; at Carbonic anhydrase 12, 60.7 nM; at Carbonic anhydrase 14, 8 nM; on Carbonic anhydrase 1 it was more than 10000 nM; at Carbonic anhydrase 9, 30.5 nM.

For the compound `O=S(=O)([O-])NC1CCCCC1.[Na+]` [SODIUM CYCLAMATE], the Ki at Carbonic anhydrase 2 was more than 10000 nM; on Carbonic anhydrase 7, 0.24 nM; at Carbonic anhydrase 12, 3.8 nM; on Carbonic anhydrase 14 it was 6.6 nM; on Carbonic anhydrase 1 it was more than 10000 nM; at Carbonic anhydrase 9 it was 81.3 nM.
